This is an account of results in US20140100290A1, “Method of treating a prostate condition” (priority 2012, published 2014).

In assay [1] the test system is LNCaP cells. Put plainly: Morphological analysis of LNCaP cells. The settings on record: 10 μM and 1000 μM, 48 hours, dose-dependent. Type of assay: cell-based, Human. The procedure: (§1) Human metastatic prostate cancer cells, LNCaP, were obtained from ATCC (Manassas, Va., USA). Cells were grown in RPMI-1640 medium supplemented with 2mM glutamine, 10% FBS, 100 U/mL penicillin, and 100 μg/mL streptomycin. LNCaP cells were maintained in a humidified atmosphere of 5% CO2 at 37° C. in T-75 flasks and were subcultured when confluent. Experiments were conducted using cells with passage numbers ranging from 5-20.
Prominent features of morphological changes occurring in a cell, such as cell shrinkage, rounding of cells, membrane blebbing, and formation of apoptotic bodies indicate induction of apoptosis or programmed cell death.
In order to identify the morphological changes in LNCaP cells after treatment with carvacrol, 2×10^6 cells/well were seeded in flat-bottom, 6-well microtiter plates, allowed to grow for 24 hours, treated with 10 μM and 1000 μM of carvacrol, and incubated for a further 48 hours at 37° C. Post incubation, cells were washed twice with PBS, and microscopic photographs of morphological changes of the cells were captured using a fluorescent microscope, Axiovert 200M (Carl Zeiss MicroImaging Inc, NY, USA). 1.15% EtOH was used in solvent control.

Assay [2] concerns LNCaP cells. Put plainly: Phosphatidylserine externalization by fluorescence microscopy (PSVue 480) in LNCaP cells. The settings on record: 10 μM and 1000 μM, 48 hours, dose-dependent. Type of assay: cell-based, Human. The procedure: as §1
One of the earliest events to occur in apoptosis or programmed cell death is the externalization of phosphatidylserine (PS), a membrane phospholipid restricted to the inner leaflet of the lipid bilayer. Redistribution of PS from the inner leaflet to the outer leaflet occurs in cells undergoing apoptosis. The PSVue™ 480 reagent kit was used to perform the phosphatidylserine (PS) externalization assay. The principle behind this assay involves a strong binding of PSVue™ 480 (fluorescent probe) to the anionic PS residues exposed on the surface of the apoptotic cells by its Zn (II)-dipicolylamine (Zn-DPA) functionality, making it a useful apoptotic sensor.
To detect PS externalization, LNCaP cells were seeded as 0.5×10^6 cells/well in flat-bottom, 6-well microtiter plates. After 24 hours of incubation at 37° C., cells were treated with 10 μM and 1000 μM of carvacrol for 48 hours. […]

Turning to `Cc1ccc(C(C)C)cc1O` [Carvacrol], the “morphological changes (features of apoptosis)” value in assay [1] was “typical features of apoptosis like rounding of cells, membrane blebbing, cell shrinkage and formation of apoptotic bodies were observed”. Also, the “externalization of phosphatidylserine residues (PSVue 480 positive cells)” value in assay [2] is recorded as “showed externalization of phosphatidylserine residues”.
